Laboratory results from patent publication US20150157588A1, “Pharmaceutical Composition Comprising Amino-Phenyl-Acetic Acid Octadec-(Z)-9-enyl Ester and Use Thereof for Treating Tumors” (Yeda Research and Development Co., Ltd., priority 2012, published 2015).

What was measured:
[1] = tested on: p53 expressing L-12 mouse B cell line; experiment: Apoptosis by hypo-diploid nuclei PI staining, transformed B cell line; format: cell-based; details: 10 or 100 μg per ml in 5% ethanol solution, 48 h
Method: Apoptosis was measured by FACS analysis with a hypo-diploid nuclei propidium iodide (PI) staining of an amino-phenyl-acetic acid octadec-(Z)-9-enyl ester treated p53 expressing L-12 mouse B cell line. FIGS. 4A-4C: L-12 cells treated with 0, 10 or 100 μg/ml of amino-phenyl-acetic acid octadec-(Z)-9-enyl ester in ethanol solution, respectively; FIGS. 4D-4F: L-12 cells treated with 0, 10 or 100 μg/ml of the control reagent 4-methyl-piperazino-acetic acid ethyl ester in ethanol solution, respectively; and FIGS. 4G-4I: L-12 cells treated with an ethanol volume corresponding to 0, 10 or 100 μg/ml of amino-phenyl-acetic acid octadec-(Z)-9-enyl ester, respectively. FL2-A is the measure of fluorescence. […]
(§1) B or T-cell apoptosis was detected by flow cytometry. […] The cells were then subjected to flow cytometric analysis; for each sample 10,000 were collected and cell-cycle distribution was analyzed according to relative DNA content (PI staining). […] The cells were then collected, stained by APO-DIRECT TUNNEL kit (Phnxflow, CITY, Calif., USA); mitochondrial potential was measured by DePsipher (R&D Systems, Minneapolis, Minn.) according to the manufacturer's procedure. Intracellular caspase activity was measured by Apostat kit (R&D Systems), according to the manufacturer's procedure. The cells were analyzed by Flow cytometry using FACSort (Becton Dickinson) and CellQuest software (Becton Dickinson). […]

[2] = tested on: freshly isolated mouse B cells; experiment: Spontaneous apoptosis by hypo-diploid nuclei PI staining, primary B cells; format: cell-based; details: 1 or 100 μg/ml in ethanol solution
Method: Apoptosis was measured by FACS analysis with a hypo-diploid nuclei propidium iodide (PI) staining of freshly isolated mouse B cells treated with amino-phenyl-acetic acid octadec-(Z)-9-enyl ester in ethanol solution. FIGS. 5A-5C: L-12 cells treated with 0, 1 or 100 μg/ml of amino-phenyl-acetic acid octadec-(Z)-9-enyl ester, respectively; FIGS. 5D-5F: L-12 cells treated with 0, 1 or 100 μg/ml of the control reagent 4-methyl-piperazino-acetic acid ethyl ester, respectively; and FIGS. 5G-5I: L-12 cells treated with an ethanol volume corresponding to 0, 1 or to 100 μg/ml of amino-phenyl-acetic acid octadec-(Z)-9-enyl ester in ethanol solution, respectively.
as §1

CCOC(=O)CN1CCN(C)CC1 [4-methyl-piperazino-acetic acid ethyl ester, reference compound]
apoptosis / cell cycle (cells in sub-GO state) [1]: had no effect
spontaneous apoptosis / cell-cycle of primary B cells [2]: had no effect
